{"source": "patent US9657351B2", "about": "“MRNA-based gene expression for personalizing patient cancer therapy with an MDM2 antagonist” (Hoffmann-La Roche Inc., priority 2013, dated 2017)", "assay_in_all_cases": "NO21279 blood cell gene expression on treatment, Affymetrix U133 Plus 2.0 microarray", "assay_type_in_all_cases": "in vivo, human", "key": {"CDKN2A mRNA": {"tested_on": "CDKN2A mRNA", "conditions": "C1D10; IQR 0.09-0.38", "description": "(§1) MDM2 mRNA concentrations were assessed at Roche Molecular Systems by quantitative real-time PCR with 50 ng total RNA from MACs isolated leukemia cells from blood. TaqMan (Invitrogen, Carlsbad, Calif., USA) probes were designed to detect MDM2 mRNA and the reference mRNA, beta-glucuronidase, simultaneously using two different fluorescent reporters. Gene expression profiles were generated using Affymetrix U133 Plus 2.0 microarrays. Probset ID's for the each of the four genes on said U133 Plus 2.0 microarray are: 209375_s_at (for XPC); 205386_s_at and 211832_s_at (MDM2); 211692_s_at (BBC3); 207039_at and 211156_at (CDKN2A). The “mRNA expression level” for one of the 4 genes according to the present invention is the accumulation of all counts falling into the range of exons of a gene (e.g. MDM2). […] The predictive patient signature score according to the present invention is then calculated using the following equation: patient signature score=GMDM2+GXPC+GBBC3−GCDKN2A. G in the formula stands for log 2 transformed mRNA expression levels as obtained from patient samples, for example blood leukemia or bone marrow biopsy samples. For example, for the patient data reported in Table 9 (Example 5), G is log 2 of the mRNA probeset expression of the relevant gene as measured with Affymetrix U133 Plus 2.0 microarrays.\n(§2) Each intensity value is then log 2 transformed."}, "MDM2 mRNA": {"tested_on": "MDM2 mRNA", "conditions": "blood cell specimens, C1D10; IQR 1.71-5.00", "description": "as §1, §2"}, "BBC3 mRNA": {"tested_on": "BBC3 mRNA", "conditions": "blood cell specimens, C1D10; IQR 1.13-1.99", "description": "as §1, §2"}}, "data": [{"smiles": "CCOc1cc(C(C)(C)C)ccc1C1=N[C@@](C)(c2ccc(Cl)cc2)[C@@](C)(c2ccc(Cl)cc2)N1C(=O)N1CCN(CCCS(C)(=O)=O)CC1", "note": "[COMPOUND A]", "values": [{"measurement": "median CDKN2A mRNA expression decreased over baseline", "setting": "CDKN2A mRNA", "value": 0.26, "unit": "times"}, {"measurement": "median MDM2 mRNA expression over baseline", "setting": "MDM2 mRNA", "value": 2.37, "unit": "times"}, {"measurement": "median BBC3 mRNA expression over baseline", "setting": "BBC3 mRNA", "value": 1.45, "unit": "times"}]}]}
